Measured values reported in ChEMBL document CHEMBL5223085, “Agonist Lock Touched and Untouched Retinoic Acid Receptor-Related Orphan Receptor-γt (RORγt) Inverse Agonists: Classification Based on the Molecular Mechanisms of Action” (J Med Chem, 2021).

Columns and labels:
[1] = target: T1, Nuclear receptor ROR-gamma (Homo sapiens, UniProt P51449); test: Inverse agonist activity against human RORgammat by FRET assay
T1 sequence (P51449 whole entry): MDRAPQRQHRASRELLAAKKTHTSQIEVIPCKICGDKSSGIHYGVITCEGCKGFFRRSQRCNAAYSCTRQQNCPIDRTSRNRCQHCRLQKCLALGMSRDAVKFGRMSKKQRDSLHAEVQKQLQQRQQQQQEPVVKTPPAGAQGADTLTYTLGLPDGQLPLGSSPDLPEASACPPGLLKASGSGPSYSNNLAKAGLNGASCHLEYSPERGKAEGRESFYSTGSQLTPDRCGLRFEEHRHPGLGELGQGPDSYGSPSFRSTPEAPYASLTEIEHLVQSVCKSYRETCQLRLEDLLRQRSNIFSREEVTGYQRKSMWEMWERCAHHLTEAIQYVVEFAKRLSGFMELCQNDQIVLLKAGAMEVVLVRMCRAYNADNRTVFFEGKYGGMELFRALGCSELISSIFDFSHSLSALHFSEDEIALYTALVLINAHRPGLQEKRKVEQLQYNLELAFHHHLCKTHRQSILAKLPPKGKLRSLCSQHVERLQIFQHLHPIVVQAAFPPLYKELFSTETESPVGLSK

[2] = target: T1, Nuclear receptor ROR-gamma; test: Displacement of 25-[26,27-3H2]-hydroxycholesterol from RORgammat (unknown origin) assessed as inhibition constant by scintillation proximity assay

IC50 [1] [nM]	Ki [2] [nM]	SMILES
5	–	Cc1ccc([C@@H](NC(=O)Cc2ccc3oc(C(O)c4c(C)noc4C)cc3c2)c2ccccc2)c(C)c1 (stereo partly drawn)
3	–	Cc1ccc(C(NC(=O)Cc2ccc(OCc3c(C)noc3C)cc2)c2ccccc2)c(C)c1 (stereo not drawn)
–	3.7	CCS(=O)(=O)c1ccc(CC(=O)Nc2cnc3c(c2)CN(C[C@H]2CC[C@H](C(F)(F)F)CC2)[C@H]3C(C)C)nc1
